ChEMBL document CHEMBL5029183 (J Med Chem, 2021)
pEC50, pIC50, pKi: −log10 of the molar value. The source made the active and inactive calls.

Legend:
Vas deferens = test: Inhibition of electric-field induced mouse vas deferens contraction; format: functional, tissue-based
[1] = Metabolic stability in Kunming mouse brain assessed as half life measured upto 480 mins by RP-HPLC analysis; format: ADME, tissue-based
[2] = biological target: Kappa-type opioid receptor (Homo sapiens) (UniProt P41145); test: Agonist activity at kappa-opioid receptor (unknown origin) expressed in HEK293 cells assessed as inhibition of forskolin-induced cAMP accumulation incubated for 15 mins by ELISA; format: functional, cell-based
Mu-type opioid receptor [3] = biological target: T1, Mu-type opioid receptor (Homo sapiens, UniProt P35372); test: Agonist activity at mu-opioid receptor (unknown origin) expressed in HEK293 cells assessed as inhibition of forskolin-induced cAMP accumulation incubated for 15 mins by ELISA; format: functional, cell-based
Ileum = test: Inhibition of electric-field induced guinea pig ileum contraction; format: functional, tissue-based; settings: Cavia porcellus
Mu-type opioid receptor [4] = biological target: Mu-type opioid receptor (Rattus norvegicus, UniProt P33535); test: Displacement of [3H]DAMGO from MOR in Wistar rat brain membranes measured after 1 hr by scintillation counting method; format: cell membranes, Membrane
[5] = biological target: Delta-type opioid receptor (Rattus norvegicus, UniProt P33533); test: Displacement of [3H]DPDPE from DOR in Wistar rat brain membranes measured after 3 hrs by scintillation counting method; format: cell membranes, Membrane
Rattus norvegicus [6] = species on record: Rattus norvegicus; test: Selectivity index, ratio of Ki for displacement of [3H]-U69593 from KOR in Wistar rat brain membranes to Ki for displacement of [3H]DAMGO from MOR in Wistar rat brain membranes; format: cell membranes
Rattus norvegicus [7] = species on record: Rattus norvegicus; test: Selectivity index, ratio of Ki for displacement of [3H]DPDPE from DOR in Wistar rat brain membranes to Ki for displacement of [3H]DAMGO from MOR in Wistar rat brain membranes; format: cell membranes
Mu-type opioid receptor [8] = biological target: T1, Mu-type opioid receptor; test: Agonist activity at mu-opioid receptor (unknown origin) expressed in HEK293 cells assessed as inhibition of forskolin-induced cAMP accumulation incubated for 15 mins by ELISA relative to control; format: functional, cell-based; settings: filed as agonist
[9] = biological target: Delta-type opioid receptor (Homo sapiens) (UniProt P41143); test: Agonist activity at delta-opioid receptor (unknown origin) expressed in HEK293 cells assessed as inhibition of forskolin-induced cAMP accumulation incubated for 15 mins by ELISA; format: functional, cell-based
[10] = Metabolic stability in Kunming mouse serum assessed as half life measured upto 480 mins by RP-HPLC analysis; format: ADME, cell-free
[11] = Toxicity in icv dosed Kunming mouse assessed as inhibition of gastrointestinal transit by measuring charcoal distance travel by charcoal meal test; format: organism-based; settings: in vivo, icv_or_intrathecal, dose 0.67-6.7 nmol
Mus musculus [12] = test: Antinociceptive activity in icv dosed Kunming mouse model assessed as increase in paw withdrawal latency by radiant heat paw withdrawal assay; format: functional; settings: dose 0.67-20 nmol
Mus musculus [13] = test: Antinociceptive activity in Kunming mouse model assessed as increase in paw withdrawal latency at 20 nmol, icv pretreated for 10 mins with naloxone followed by compound addition and measured upto 10 mins by radiant heat paw withdrawal assay; format: functional, organism-based; settings: time min <=10
Mus musculus [14] = test: Antinociceptive activity in Kunming mouse model assessed as increase in paw withdrawal latency at 20 nmol, icv pretreated for 4 hrs with beta-FNA followed by compound addition and measured upto 10 mins by radiant heat paw withdrawal assay; format: functional, organism-based; settings: time min <=10
Mus musculus [15] = test: Antinociceptive activity in Kunming mouse model assessed as increase in paw withdrawal latency at 0.67 to 20 nmol, icv measured after 5 mins by radiant heat paw withdrawal assay; format: functional, organism-based; settings: dose 0.67-20 nmol
Mus musculus [16] = test: Antinociceptive activity in Kunming mouse model assessed as increase in paw withdrawal latency at 20 nmol, icv pretreated for 30 mins with nor-BNI followed by compound addition and measured upto 10 mins by radiant heat paw withdrawal assay; format: functional, organism-based; settings: time min <=10
Mus musculus [17] = test: Chronic antinociceptive tolerance in Kunming mouse pretreated with compound followed by repeated compound addition at 20 nmol, icv once daily for 7 days and measured after 5 mins by radiant heat paw withdrawal test; format: functional, organism-based; settings: time 7.0 day
[18] = Toxicity in Kunming mouse model assessed as conditioned place preference time at 10 micromol/kg, sc; settings: in vivo, dose 10 µmol/kg
Mus musculus [19] = test: Antinociceptive activity in Kunming mouse model assessed as increase in paw withdrawal latency at 0.67 to 20 nmol, icv by radiant heat paw withdrawal assay; format: functional, organism-based; settings: dose 0.67-20 nmol, TDE = time-dependent effect
Mus musculus [20] = test: Antinociceptive activity in Kunming mouse model assessed as increase in paw withdrawal latency at 0.67 to 20 nmol, icv measured after 20 mins by radiant heat paw withdrawal assay; format: functional, organism-based; settings: dose 0.67-20 nmol
[21] = Toxicity in Kunming mouse assessed as inhibition of gastrointestinal transit at 10 micromol/kg, sc by charcoal meal test (reference value: 70.3 +/- 3 %); format: organism-based; set-up: scale not given: the % may be the effect or the level left; settings: in vivo
Mus musculus [22] = test: Antinociceptive activity in Kunming mouse model assessed as increase in paw withdrawal latency at 20 nmol, icv pretreated for 20 mins with naloxonazine followed by compound addition and measured upto 10 mins by radiant heat paw withdrawal assay; format: functional, organism-based; settings: time min <=10
[23] = Toxicity in Kunming mouse model assessed as conditioned place preference time at 20 nmol, icv; settings: in vivo, icv_or_intrathecal
Mus musculus [24] = test: Antinociceptive activity in Kunming mouse model assessed as increase in paw withdrawal latency at 10 micromol/kg, sc by radiant heat paw withdrawal assay; format: functional, organism-based; settings: dose 10.0 µmol/kg
Mus musculus [25] = test: Chronic antinociceptive tolerance in Kunming mouse pretreated with compound followed by repeated compound addition at 20 nmol, icv once daily for 7 days and measured after 15 mins by radiant heat paw withdrawal test; format: functional, organism-based; settings: time 7.0 day
Mus musculus [26] = test: Chronic antinociceptive tolerance in Kunming mouse pretreated with compound followed by repeated compound addition at 10 micromol/kg, sc once daily for 7 days and measured after 20 mins by radiant heat paw withdrawal test; format: functional, organism-based; settings: dose 10.0 µmol/kg, time 7.0 day
Mus musculus [27] = test: Antinociceptive activity in Kunming mouse model assessed as maximum possible effect at 10 micromol/kg, sc by radiant heat paw withdrawal assay; format: functional; settings: dose 10 µmol/kg
[28] = Toxicity in Kunming mouse assessed as effect on motor coordination at 20 nmol, icv by rotarod test; settings: in vivo, icv_or_intrathecal
[29] = Toxicity in Kunming mouse assessed as effect on motor coordination at 10 micromol/kg, sc by rotarod test; format: organism-based; settings: in vivo, dose 10 µmol/kg
Mus musculus [30] = test: Antiallodynic activity in Kunming mouse model of spared nerve injury-induced neuropathic pain assessed as increase in paw withdrawal threshold at 10 micromol/kg, sc measured at 20 to 50 mins by von Frey test; format: functional, organism-based; settings: dose 10.0 µmol/kg, time 20-50 min
Mus musculus [31] = species on record: Mus musculus; test: Antinociceptive tolerance in Kunming mouse pretreated with saline for 2 hrs followed by compound addition by radiant heat paw withdrawal test; format: functional
Mus musculus [32] = species on record: Mus musculus; test: Antinociceptive tolerance in Kunming mouse pretreated with 3 times ED50 of compound for 2 hrs followed by challenge with second dose of compound by radiant heat paw withdrawal test; format: functional

Mu-type opioid receptor (Rattus norvegicus, UniProt P33535), sequence (P33535 whole entry): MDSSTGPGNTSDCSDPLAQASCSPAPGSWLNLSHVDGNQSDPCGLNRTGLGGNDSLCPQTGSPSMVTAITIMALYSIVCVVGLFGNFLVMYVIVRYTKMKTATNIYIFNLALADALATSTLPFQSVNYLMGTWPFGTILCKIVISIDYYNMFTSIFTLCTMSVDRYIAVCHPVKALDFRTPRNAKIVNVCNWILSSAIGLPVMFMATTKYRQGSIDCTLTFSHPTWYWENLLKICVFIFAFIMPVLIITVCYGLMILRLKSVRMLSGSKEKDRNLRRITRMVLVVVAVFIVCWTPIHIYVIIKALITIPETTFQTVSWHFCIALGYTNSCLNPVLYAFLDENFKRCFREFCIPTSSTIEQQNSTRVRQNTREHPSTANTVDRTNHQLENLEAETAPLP
T1 sequence (P35372 whole entry): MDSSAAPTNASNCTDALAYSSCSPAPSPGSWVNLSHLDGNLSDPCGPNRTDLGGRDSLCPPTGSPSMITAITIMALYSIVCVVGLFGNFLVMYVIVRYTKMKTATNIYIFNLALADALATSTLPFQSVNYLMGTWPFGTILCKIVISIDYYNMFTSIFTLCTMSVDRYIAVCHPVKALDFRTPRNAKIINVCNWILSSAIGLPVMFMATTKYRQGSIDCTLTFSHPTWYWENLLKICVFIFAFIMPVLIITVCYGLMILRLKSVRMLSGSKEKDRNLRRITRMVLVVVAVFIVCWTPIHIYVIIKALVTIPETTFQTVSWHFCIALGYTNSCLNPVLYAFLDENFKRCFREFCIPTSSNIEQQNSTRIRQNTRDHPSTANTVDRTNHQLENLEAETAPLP
Delta-type opioid receptor (Homo sapiens), sequence (P41143 whole entry): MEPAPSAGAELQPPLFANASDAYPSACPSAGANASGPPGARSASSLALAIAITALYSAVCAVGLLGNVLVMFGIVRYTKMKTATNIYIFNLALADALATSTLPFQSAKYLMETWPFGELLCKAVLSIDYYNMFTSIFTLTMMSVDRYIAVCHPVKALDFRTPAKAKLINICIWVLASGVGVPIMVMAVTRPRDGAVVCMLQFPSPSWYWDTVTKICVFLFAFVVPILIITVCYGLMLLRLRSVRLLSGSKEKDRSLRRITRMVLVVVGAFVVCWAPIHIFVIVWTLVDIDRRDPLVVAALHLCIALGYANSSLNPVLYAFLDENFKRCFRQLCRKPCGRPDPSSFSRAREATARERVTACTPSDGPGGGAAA
Delta-type opioid receptor, sequence (P33533 whole entry): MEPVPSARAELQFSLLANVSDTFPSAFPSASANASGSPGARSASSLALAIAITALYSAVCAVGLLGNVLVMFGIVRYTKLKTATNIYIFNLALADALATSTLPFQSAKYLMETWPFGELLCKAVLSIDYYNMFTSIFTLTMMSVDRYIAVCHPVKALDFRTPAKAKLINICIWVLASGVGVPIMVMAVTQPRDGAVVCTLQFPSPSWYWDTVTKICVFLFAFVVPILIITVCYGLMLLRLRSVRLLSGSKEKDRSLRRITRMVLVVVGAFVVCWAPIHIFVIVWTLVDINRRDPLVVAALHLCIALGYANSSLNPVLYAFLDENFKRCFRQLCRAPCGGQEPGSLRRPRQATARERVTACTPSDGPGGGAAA
Kappa-type opioid receptor (Homo sapiens), sequence (P41145 whole entry): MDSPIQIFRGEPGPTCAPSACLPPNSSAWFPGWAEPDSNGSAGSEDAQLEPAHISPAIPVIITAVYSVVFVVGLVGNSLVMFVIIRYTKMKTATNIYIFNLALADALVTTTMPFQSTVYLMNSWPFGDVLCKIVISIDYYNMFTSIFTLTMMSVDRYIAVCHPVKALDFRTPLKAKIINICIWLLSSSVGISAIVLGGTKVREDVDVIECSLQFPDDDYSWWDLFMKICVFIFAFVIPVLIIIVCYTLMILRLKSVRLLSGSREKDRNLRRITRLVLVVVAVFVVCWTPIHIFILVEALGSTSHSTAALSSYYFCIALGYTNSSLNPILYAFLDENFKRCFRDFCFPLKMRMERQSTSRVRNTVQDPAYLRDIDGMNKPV

N=C(N)NCCC[C@@H](NC(=O)[C@@H](CCCNC(=N)N)NC(=O)CNC(=O)[C@@H]1CSSC[C@H](NC(=O)[C@@H](N)Cc2ccc(O)cc2)C(=O)N[C@@H](Cc2ccccc2)C(=O)N[C@@H](Cc2ccc(Cl)cc2)C(=O)N1)C(=O)O
pIC50 (Vas deferens): 6.86 | half-life [1]: 5.85 h | Activity [2]: inactive | pEC50 (Mu-type opioid receptor [3]): 6.70 | pIC50 (Ileum): 6.99 | pKi (Mu-type opioid receptor [4]): 7.17 | pKi [5]: < 5.00 | Ratio Ki (Rattus norvegicus [6]): > 149 | Ratio Ki (Rattus norvegicus [7]): > 149 | Emax (Mu-type opioid receptor [8]): 79.6% | Activity [9]: inactive | half-life [10]: 4.47 h

N=C(N)NCCC[C@@H](NC(=O)[C@@H](CCCNC(=N)N)NC(=O)CNC(=O)[C@@H]1CSSC[C@H](NC(=O)[C@@H](N)Cc2ccc(O)cc2)C(=O)N[C@@H](Cc2ccccc2)C(=O)N[C@@H](Cc2ccccc2)C(=O)N1)C(=O)O
pIC50 (Vas deferens): 6.97 | half-life [1]: 4.12 h | Activity [2]: inactive | pEC50 (Mu-type opioid receptor [3]): 6.81 | pIC50 (Ileum): 7.13 | pKi (Mu-type opioid receptor [4]): 7.34 | pKi [5]: < 5.00 | Ratio Ki (Rattus norvegicus [6]): > 221 | Ratio Ki (Rattus norvegicus [7]): 221 | Emax (Mu-type opioid receptor [8]): 79.7% | Activity [9]: inactive | half-life [10]: 3.6 h

NC(=O)[C@H](Cc1ccccc1)NC(=O)[C@H](Cc1c[nH]c2ccccc12)NC(=O)[C@@H]1CCCN1C(=O)[C@@H](N)Cc1ccc(O)cc1 [ENDOMORPHIN-1]
pIC50 (Vas deferens): 7.30 | Activity [11]: Dose-Dependent Effect | Activity (Mus musculus [12]): Dose-Dependent Effect | Activity (Mus musculus [13]): inactive | Activity (Mus musculus [14]): inactive | Activity (Mus musculus [15]): inactive | Activity (Mus musculus [16]): Active | Activity (Mus musculus [17]): Active | Time [18]: 451 s | pIC50 (Ileum): 8.06 | Activity (Mus musculus [19]): Tde | Activity (Mus musculus [20]): inactive | Activity ([21]; at 10 µmol/kg): 68.1% | Activity (Mus musculus [22]): Active | Time [23]: 455 s | Activity (Mus musculus [24]): inactive

CN1CC[C@]23c4c5ccc(O)c4O[C@H]2[C@@H](O)C=C[C@H]3[C@H]1C5 [MORPHINE]
Activity (Mus musculus [25]): Active | Activity [11]: Dose-Dependent Effect | Activity (Mus musculus [26]): Active | MPE (Mus musculus [27]): 41.05% | Time [18]: 447 s | Activity ([21]; dose 10 µmol/kg): Toxic | Activity [28]: Toxic | Activity [29]: Toxic | Time [23]: 451 s | Activity (Mus musculus [30]): Active

NC(=O)[C@H](Cc1ccccc1)NC(=O)[C@H](Cc1ccccc1)NC(=O)[C@@H]1CCCN1C(=O)[C@@H](N)Cc1ccc(O)cc1 [ENDOMORPHIN 2]
pIC50 (Vas deferens): 7.37 | half-life [1]: 0.258 h | Activity [11]: Dose-Dependent Effect | Activity (Mus musculus [12]): Dose-Dependent Effect | ED50 (Mus musculus [12]): 6.4 nmol | Activity (Mus musculus [13]): inactive | Activity (Mus musculus [14]): inactive | Activity (Mus musculus [15]): inactive | ED50 (Mus musculus [31]): 6.4 nmol | Activity (Mus musculus [16]): inactive | Activity (Mus musculus [17]): Active | Time [18]: 445 s | pIC50 (Ileum): 7.95 | Activity (Mus musculus [19]): Tde | ED50 (Mus musculus [32]): 20.6 nmol | Activity (Mus musculus [20]): inactive | Activity ([21]; at 10 µmol/kg): 68.8% | Activity (Mus musculus [22]): inactive | Time [23]: 449 s | half-life [10]: 0.148 h | Activity (Mus musculus [24]): inactive

N=C(N)NCCC[C@@H](NC(=O)[C@@H](CCCNC(=N)N)NC(=O)CNC(=O)[C@@H]1CSSC[C@H](NC(=O)[C@@H](N)Cc2ccc(O)cc2)C(=O)N[C@@H](Cc2c[nH]c3ccccc23)C(=O)N[C@@H](Cc2ccc(Cl)cc2)C(=O)N1)C(=O)O
pIC50 (Vas deferens): 6.86 | half-life [1]: 5.8 h | Activity [2]: inactive | pEC50 (Mu-type opioid receptor [3]): 6.72 | pIC50 (Ileum): 7.01 | pKi (Mu-type opioid receptor [4]): 7.16 | pKi [5]: < 5.00 | Ratio Ki (Rattus norvegicus [6]): > 145 | Ratio Ki (Rattus norvegicus [7]): > 145 | Emax (Mu-type opioid receptor [8]): 80.6% | Activity [9]: inactive | half-life [10]: 4.57 h

N=C(N)NCCC[C@@H](NC(=O)[C@@H](CCCNC(=N)N)NC(=O)CNC(=O)[C@@H]1CSSC[C@H](NC(=O)[C@@H](N)Cc2ccc(O)cc2)C(=O)N[C@@H](Cc2c[nH]c3ccccc23)C(=O)N[C@@H](Cc2ccccc2)C(=O)N1)C(=O)O
pIC50 (Vas deferens): 7.01 | half-life [1]: 4.23 h | Activity [2]: inactive | pEC50 (Mu-type opioid receptor [3]): 6.80 | pIC50 (Ileum): 7.15 | pKi (Mu-type opioid receptor [4]): 7.40 | pKi [5]: < 5.00 | Ratio Ki (Rattus norvegicus [6]): > 249 | Ratio Ki (Rattus norvegicus [7]): 249 | Emax (Mu-type opioid receptor [8]): 77.2% | Activity [9]: inactive | half-life [10]: 3.28 h
